Assay [1] relates to T cells, B cells and NK cells. Particulars: cited from earlier work.
Assay [2] has as its system CD34+CD90+CD45RA− cells. As to the kind of experiment: Phase 1 clinical trial: mobilization of CD34+CD90+CD45RA− cells into peripheral blood (flow cytometry). (In general: Flow cytometry measures light scatter and fluorescence of single cells or particles in a stream.)
The subject of assay [3] is CD34+ cells. As to the kind of experiment: Phase 1 clinical trial: mobilization of CD34+ cells into peripheral blood (multicolor flow cytometry). As to conditions: for % ≥40/μL: plerixafor.
The test system of assay [4] is CD34+ cells. As to conditions: historical plerixafor alone data, Devine et al., Blood 2008 (n=25); cited from earlier work.
Assay [5] has as its system neutrophils. As to the kind of experiment: Phase 1 clinical trial: mobilization of neutrophils (automated hematology analyzer). As to conditions: monotherapy.
Description: (§1) The dose of MGTA-145 was one of 0.0075 mg/kg, 0.015 mg/kg, 0.03 mg/kg, 0.075 mg/kg, 0.15 mg/kg, or 0.3 mg/kg. […] The dose of MGTA-145 was one of 0.015 mg/kg, 0.03 mg/kg, 0.075 mg/kg, or 0.15 mg/kg. […] The dose of MGTA-145 was one of 0.03 mg/kg or 0.075 mg/kg.
(§2) Mobilization of white blood cells (WBCs), neutrophils, lymphocytes, basophils, and eosinophils was quantified by automated hematology analyzer.
For assay [6], the system named is white blood cells (WBCs). Put plainly: Phase 1 clinical trial: mobilization of white blood cells (automated hematology analyzer). Particulars: monotherapy.
Description: as §1, §2
Assay [7] concerns the target T1, CXCR2 (Homo sapiens, UniProt P25025).
T1 construct: endogenous in cells; host or cells: peripheral blood neutrophils of trial subjects (in vivo dosing, ex vivo measurement)
T1 sequence (P25025 1-360): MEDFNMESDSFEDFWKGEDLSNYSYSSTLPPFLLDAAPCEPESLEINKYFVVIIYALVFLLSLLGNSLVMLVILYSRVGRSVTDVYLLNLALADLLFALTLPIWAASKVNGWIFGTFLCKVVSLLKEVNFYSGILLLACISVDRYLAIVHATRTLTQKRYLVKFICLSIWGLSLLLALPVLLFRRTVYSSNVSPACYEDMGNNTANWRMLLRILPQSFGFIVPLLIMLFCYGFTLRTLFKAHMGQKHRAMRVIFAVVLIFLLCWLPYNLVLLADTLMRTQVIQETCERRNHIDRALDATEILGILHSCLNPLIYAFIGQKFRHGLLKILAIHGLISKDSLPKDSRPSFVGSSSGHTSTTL
As to the kind of experiment: Phase 1 clinical trial: CXCR2 expression on peripheral blood neutrophils. Type of assay: in vivo. On the procedure:
Lines from bottom to top at 6 hrs post-administration represent 0.3 mg/kg, 0.15 mg/kg, 0.075 mg/kg, 0.03 mg/kg, 0.015 mg/kg, […], respectively.

Assay [8] concerns neutrophil activation markers (L-selectin, CD11b, CD18, CD66). Put plainly: Phase 1 clinical trial: neutrophil activation markers by flow cytometry. Type of assay: in vivo, human. Particulars: monotherapy. From the text: G-CSF, the traditional therapy of choice for mobilization of neutrophils, enhances neutrophil activation, as measured by CD11b and CD18, but this has been identified to be problematic, for example, in patients with sickle cell disease where activated neutrophils adhere to the endothelium, thereby increasing the risk of severe and life-threatening complications such as vaso-occlusive crises. […] In contrast, the administration of MGTA-145 monotherapy (across all six doses) induces less than a 2-fold change relative to baseline for the neutrophil activation markers of CD11b and CD18.

The subject of assay [9] is hematopoietic stem and progenitor cell mobilization. Particulars: cited from earlier work.
Assay [10] relates to relative engraftment (CRU). Put plainly: Primary and secondary transplantation of mobilized mouse cells at limit dilution (CRU). Particulars: compared to the other cohorts. It is filed as in vivo, mice.
Excerpt: Mice (CD45.1) were mobilized according to the scheme shown in FIG. 24 and mobilized cells transplanted into CD45.2 mice at limit dilution.
In assay [11] the test system is MMP-9. As to the kind of experiment: Phase 1 clinical trial: plasma MMP-9 and TIMP-1 by sandwich immunoassay. It is filed as in vivo, human. As to conditions: monotherapy, all six doses. As for the experimental part: FIGS. 6A and 6B show the plasma levels of MMP-9 and molar ratio of MMP-9:TIMP-1, respectively, over the course of 24 hours following MGTA-145 monotherapy. MMP-9 is an enzyme involved in the breakdown of extracellular matrix and indicative of neutrophil migration whereas TIMP-1 blocks MMP-9 mediated migration. Therefore, an increase in MMP-9 or an increase in MMP-9:TIMP-1 ratio is indicative of increased neutrophil mobilization. […] The plasma levels of MMP-9 then decreased towards initial concentrations over the course of 24 hours.

[12] abbreviates: Chen et al., 2019, plerixafor N = 50+, median yield of 2 LP.
The mark [13] stands for this setting: Devine et al, 2008, median yield of 1 LP, plerixafor N = 24, G-CSF N = 8.
Setting [14] is: Part C, first day, combination (0.03 or […]) 8 patients, plerixafor alone.
[15] abbreviates: Part C, placebo + plerixafor on Day 2 (n=2).
The mark [16] stands for this setting: higher doses (0.075, 0.15, 0.3 mg/kg), 2 hours post administration.
[17] abbreviates: lower doses (0.0075, 0.015, 0.03 mg/kg), between 1 and 2 hours post administration.
Where [18] appears, read: Part A monotherapy, the other doses.
Setting [19] is: Part A, MGTA-145 on Day 1, 0.03 mg/kg (n=4).
The mark [20] stands for this setting: Part A, MGTA-145 on Day 1, 0.3 mg/kg (n=4).

The source of these data is patent US20220401481A1, “DOSING REGIMENS FOR THE MOBILIZATION OF HEMATOPOIETIC STEM AND PROGENITOR CELLS” (Magenta Therapeutics, Inc., priority 2019, published 2022).

Several values for one entry are separate records, joined by “and”; a condition that tells them apart may be missing. Identical values can stand only once. Like-named read-outs stand apart in the source and are kept apart here. A value given as a limit tells only on which side of the number the result lay.

Turning to `c1cc(CN2CCCNCCNCCCNCC2)ccc1CN1CCCNCCNCCCNCC1` [Plerixafor, 1,1′-[1,4-phenylenebis(methylene)]-bis-1,4,8,11-tetra-azacyclotetradecane], in assay [1] (setting [12]), the “CD3+ in graft, Median (range)” value was 6.0 (2.7-13.0) ×10^8/kg; the “CD4+ in graft, Median (range)” value is given as 3.6 (2.0-9.4) ×10^8/kg; the “CD8+ in graft, Median (range)” value is 2.2 (0.5-5.0) ×10^8/kg; the “CD19+ in graft, Median (range)” value is listed as 1.5 (0.2-7.4) ×10^8/kg. In assay [1] (setting [12]), the “CD34+ in graft, Median (range)” value is reported as 4.7 (0.9-9.6) ×10^6/kg and the “CD56+ in graft, Median (range)” value is given as 0.4 (0.0-1.1) ×10^8/kg. Further, in assay [1] (setting [13]), the “CD3+ in graft, Median (range)” value is given as 4.6 (1.5-7.8) ×10^8/kg; the “CD4+ in graft, Median (range)” value is reported as 3.2 (1-5.7) ×10^8/kg; the “CD8+ in graft, Median (range)” value is listed as 1.3 (0.4-3.4) ×10^8/kg; the “CD34+ in graft, Median (range)” value is reported as 2.9 (1.2-6.3) ×10^6/kg. Further, in assay [1] (setting [13]), the “CD56+ in graft, Median (range)” value is recorded as 0.3 (0.1-1.0) ×10^8/kg. The “CD19+ in graft, Median (range)” value in assay [1] (Devine et al, 2008, median yield of 1 LP, plerixafor N = 24) is listed as 1.0 (0.2-2.4) ×10^8/kg. The “CD34+CD90+CD45RA− cells, median peak” value in assay [2] (plerixafor alone) amounted to 8 cells/μL. Moreover, the “CD34+ AUC2-8h Median (range)” value in [3] (2-8 hours post plerixafor dose, plerixafor alone) is 102 (61-341). Besides, the “% ≥40/μL” value in [3] (Part B) was 21% (3/16). In assay [3] (Part B, plerixafor (placebo + plerixafor) on Day 1), the “Peak CD34+ (#/μL) Median (range)” value is listed as 26 (13-78) #/μL. For the same compound, in assay [3] (setting [14]), the “Number of patients with peak CD34+ count of at least 20 cells per microliter” value is recorded as “none” and the “Number of patients with peak CD34+ count of at least 40 cells per microliter” value is given as “none”. Moreover, in [3] (setting [15]), the “Peak CD34+ (#/μL) Median (range)” value is recorded as 17 (12-22) #/μL and the “Percent ≥20/μL” value is 50 (1/2) %. Besides, the “Peak CD34+ (#/μL) Median (range)” value in assay [3] (Part C, plerixafor (placebo + plerixafor) on Day 1 (n=2)) is 18 (16-20) #/μL. Moreover, the “% ≥40/μL” value in [3] (Part C, first day (n=2)) is recorded as 0% (0/2). In addition, in [3] (Pooled B + C), the “% ≥40/μL” value is recorded as 14% (2/14). In [3] (Pooled B + C, plerixafor (placebo + plerixafor) on Day 1), the “Peak CD34+ (#/μL) Median (range)” value was 20 (13-78) #/μL and 23 (13-78) #/μL. Besides, in assay [3] (plerixafor alone), the “Peak CD34+/μL (FC vs. baseline) Median (range)” value is recorded as 15 (8-62) fold and the “Tmax of peak CD34+ level Median (range)” value is listed as 8 (3-12) h. In assay [3] (plerixafor alone (n=14)), the “Patients with peak CD34+ ≥20 cells/μL” value is listed as 50% and the “Patients with peak CD34+ ≥40 cells/μL” value is on record as 14%. In addition, in assay [4], the “Patients with peak CD34+ ≥20 cells/μL” value is 28% and the “Patients with peak CD34+ ≥40 cells/μL” value is recorded as 4%.
For the compound “MGTA-145: CXCR2 agonist; truncated Gro-β with deletion of the first four N-terminal amino acids (SEQ ID NO: 2)”, in [5] (setting [16]), the “Initial plateau of neutrophil mobilization” value is reported as 5-8 ×10^3 cells/μL. Also, the “Peak mobilization of neutrophils” value in [5] (setting [17]) is 13-15 ×10^3 cells/μL. In addition, the “Initial plateau of WBC mobilization” value in assay [6] (setting [16]) is listed as 6-10 ×10^3 cells/μL. In addition, in assay [6] (setting [17]), the “Peak mobilization of WBCs” value is on record as 15-17 ×10^3 cells/μL. Further, the “Time of peak CD34+CD90+CD45RA− mobilization post administration” value in assay [2] (Part A monotherapy) is 30 min. In addition, in assay [2] (Part A monotherapy, 0.03 mg/kg), the “Fold increase of CD34+CD90+CD45RA− cells” value was around 8.3 fold and the “Peak concentration of CD34+CD90+CD45RA− cells” value is around 3 cells/μL. For the same compound, in assay [2] (setting [18]), the “Fold increase of CD34+CD90+CD45RA− cells” value is 2-3.5 fold and the “Peak concentration of CD34+CD90+CD45RA− cells” value is 1-1.6 cells/μL. Further, the “CXCR2 expression recovery prior to the second dose” value in [7] (0.07 mg/kg, staggered dosing, two consecutive days) was ~80 % of baseline. For the same compound, the “CXCR2 on peripheral blood neutrophils” value in [7] (monotherapy, followed by recovery over 24 hours) is listed as “rapid downregulation”. Besides, the “Fold change relative to baseline, CD66” value in assay [8] (all doses except the highest (0.3 mg/kg)) is given as below 2 fold. In assay [8] (all six doses), the “Fold change relative to baseline, CD11b and CD18” value is below 2 fold; the “Fold change relative to baseline, L-selectin” value was below 2 fold. In addition, the “Potency to induce hematopoietic stem and progenitor cell mobilization relative to Gro-β” value in assay [9] (described in U.S. Pat. No. 6,080,398) is “superior to that of Gro-β by multiple orders of magnitude”. In addition, in assay [3] (Part A monotherapy, 0.03 mg/kg), the “Fold increase of CD34+ cells” value worked out at 7 fold and the “Peak concentration of CD34+ cells” value is around 10 cells/μL. Also, the “Time of peak CD34+ mobilization post administration” value in assay [3] (Part A monotherapy, across the six doses (0.0075-0.3 mg/kg)) is “about 30 minutes”. The “Fold increase of CD34+ cells” value in assay [3] (setting [18]) is listed as 2-3 fold. Besides, the “Peak concentration of CD34+ cells” value in assay [3] (Part A monotherapy, the other doses (0.0075, 0.015, 0.075, 0.15, 0.3 mg/kg)) is reported as around 5 cells/μL. In [3] (setting [19]), the “Peak CD34+ (#/μL) Median (range)” value is 12 (2-19) #/μL and the “Percent ≥20/μL” value is on record as 0 (0/4) %. Besides, in [3] (setting [20]), the “Peak CD34+ (#/μL) Median (range)” value is 3 (3-13) #/μL and the “Percent ≥20/μL” value is 0 (0/4) %. Further, in assay [10], the “Engraftment rates, secondary transplantation” value is listed as “vastly improved engraftment rates”. Moreover, in [11], the “Molar ratio of MMP-9:TIMP-1” value is given as “rapid increase 30 minutes post-administration” and the “Plasma levels of MMP-9” value was “increased sharply within 30 minutes post-administration”.
Consider “Gro-β T N65D: Gro-β T with aspartic acid in place of asparagine at position 65, SEQ ID NO: 4 [reference compound]”, for which, in [9] (described in U.S. Pat. No. 6,447,766), the “Potency (hematopoietic stem and progenitor cell mobilization) relative to Gro-β T” value is “substantially greater than that of Gro-β T”.
